Earlier results in patent US20160213782A1, “POLYURETHANES AS ORAL DRUG DELIVERY PLATFORM” (Universiteit Gent, priority 2013, published 2016).
Counter-ions that a name gives are not always drawn.

Details: for drug solubility: as given in legend of FIG. 1; for aqueous solubility in 100 ml at 25° C.: in 100 ml water

| Structure (SMILES) | drug solubility [mg/mL] | aqueous solubility in 100 ml at 25° C. [g] |
| --- | --- | --- |
| Cn1c(=O)c2[nH]cnc2n(C)c1=O [TH, Theophylline] | 10 | 0.7 |
| Cn1c(=O)c2c(ncn2CC(O)CO)n(C)c1=O (centres unmarked) [Dyph, 7-(2,3-dihydroxypropyl)-theophylline] |  | 33 |
| COCCc1ccc(OCC(O)CNC(C)C)cc1 (centres unmarked) [MPT, Metoprolol tartrate] | > 1000 |  |
| CC(=O)Nc1ccc(O)cc1 [acetaminophen] |  | 1.4 |
